Our source for the Kd and Monomer (%) values is paper PMC6338582, “rA1M-035, a Physicochemically Improved Human Recombinant α1-Microglobulin, Has Therapeutic Effects in Rhabdomyolysis-Induced Acute Kidney Injury” (Antioxidants & Redox Signaling, 2018).

In series [1] the target is T1, rA1M (recombinant human α1-microglobulin; rA1M-wt and rA1M-035) (Homo sapiens, UniProt P02760).
T1 construct: gene AMBP
T1 sequence (P02760 20-202): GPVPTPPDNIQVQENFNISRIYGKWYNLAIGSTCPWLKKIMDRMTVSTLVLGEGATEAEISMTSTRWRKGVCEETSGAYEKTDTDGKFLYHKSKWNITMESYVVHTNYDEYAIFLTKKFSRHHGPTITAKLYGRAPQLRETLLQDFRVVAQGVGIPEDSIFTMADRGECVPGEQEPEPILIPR
Description: SPR (BIAcore X100), rA1M captured on immobilized anti-His antibody. The format is binding.

For series [2], the target named is T2, rA1M (recombinant human α1-microglobulin; rA1M-wt and rA1M-035) (Homo sapiens, UniProt P02760, N115D/N36D/R85H).
T2 construct: gene AMBP
T2 sequence (P02760 20-202 N36D/R85H/N115D): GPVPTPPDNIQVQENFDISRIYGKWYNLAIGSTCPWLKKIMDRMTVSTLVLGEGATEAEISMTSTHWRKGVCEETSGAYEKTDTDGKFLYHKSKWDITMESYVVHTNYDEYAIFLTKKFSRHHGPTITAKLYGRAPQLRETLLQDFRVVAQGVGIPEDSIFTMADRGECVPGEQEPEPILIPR
Described as above. The format is binding.

Series [3] can be described thus: SEC; 24-mL Superose 12 10/30 GL column, 20 mM Tris-HCl, pH 8.0 + 0.15 M NaCl; 100-200 ug protein loaded; unstressed samples at 0.1 mM or samples stored in PBS at the indicated concentrations, temperatures and times. In general terms: Size exclusion chromatography separates by hydrodynamic size, large species first.
Series [4] addresses P02760. The series is described as above.

Consider `C=CC1=C(C)C2=Cc3c(C=C)c(C)c4[n]3[Fe]([Cl])[n]3c(c(C)c(CCC(=O)O)c3=CC3=NC(=C4)C(C)=C3CCC(=O)O)=CC1=N2` [heme], for which the dissociation constant (Kd) (as a rule, the constant that tells how readily two partners part at equilibrium) in series [1] turned out to be 15.8 µM; in series [2], 4.45 µM.
Take “rA1M-035, recombinant human α1-microglobulin variant with N17D, R66H and N96D”: the Monomer (%) in series [3] is 93%.

B1: recombinant wild-type human α1-microglobulin (rA1M-wt) (protein)
chain: GPVPTPPDNIQVQENFNISRIYGKWYNLAIGSTCPWLKKIMDRMTVSTLVLGEGATEAEISMTSTRWRKGVCEETSGAYEKTDTDGKFLYHKSKWNITMESYVVHTNYDEYAIFLTKKFSRHHGPTITAKLYGRAPQLRETLLQDFRVVAQGVGIPEDSIFTMADRGECVPGEQEPEPILIPRV
With B1, the Monomer (%) in series [4] worked out at 87%.
